# Measurements as given in patent US12234238B2, “Antimicrobial compounds and methods of making and using the same” (BIOVERSYS AG, priority 2017, dated 2025).
# How the values were obtained:
# [1] = tested on: Eschericia coli (E. coli) strain ATCC25922; assay: standard microdilution assay to determine minimum inhibitory concentrations (MICs), E. coli; assay type: cell-based; settings: Escherichia coli
# Procedure: (§1) The in vitro activity of the compounds of the present disclosure can be determined. Antimicrobial testing is typically performed to determine the minimum inhibitory concentration (MIC). Minimum inhibitory concentrations (MICs) are determined by the microdilution method in a final volume of 100 μl according to protocols outlined by The Clinical and Laboratory Standards Institute (CLSI). Performance standards for reference strains are assessed within the same experimental design to maintain quality control. See, for example, Clinical Laboratory Standards Institute: Methods for dilution antimicrobial susceptibility tests for bacteria that grow aerobically M7-A8. Approved Standard-Eighth Edition. Wayne, PA: CLSI; December 2008: and Clinical Laboratory Standards Institute: Performance Standards for Antimicrobial Susceptibility Testing M100-S20; Approved Standard-Twentieth Edition. Wayne, PA: CLSI; June 2010. The compounds of the present disclosure were tested for antimicrobial activity. The Compounds 1-122 were run against Eschericia coli (E. coli) strain ATCC25922 and against Staphylococcus aureus (S. aureus) 11540 strain using a standard microdilution assay to determine minimum inhibitory concentrations (MICs). […] It will be recognized by one skilled in the art that the compounds can be assessed against other bacterial organisms and that the presentation of data for activity against Eschericia coli and Staphylococcus aureus are illustrative and in no way is intended to limit the scope of the present disclosure. The compounds of the present disclosure can be assayed against a range of other microorganisms depending upon the performance activity desired to be gathered. Furthermore, the “+” and “−” representation and the selection of a cutoff value of 16 micrograms/mL is also illustrative and in no way is intended to limit the scope of the present disclosure.
# [2] = tested on: Staphylococcus aureus (S. aureus) 11540 strain; assay: standard microdilution assay to determine minimum inhibitory concentrations (MICs), S. aureus; assay type: cell-based
# Procedure: as §1
Structure (SMILES),MIC [1] [µg/mL],MIC [2] [µg/mL]
C[C@H](N)CCCc1cc(Cl)c(F)c(-c2cc3cn(-c4ccc([C@@H]5CCC[C@@H](CCSC(=N)N)N5CCF)cc4)c(=O)nc3[nH]2)c1 [Compound 98],≤ 16,≤ 16
C[C@H](N)CCCc1cc(-c2cc3cn(-c4ccc([C@@H]5CCC[C@@H](CCSC(=N)N)N5)cc4)c(=O)nc3[nH]2)cc(C2CCCC2)c1 [Compound 100],≤ 16,≤ 16
CCc1c(F)c(CCC[C@H](C)N)cc(-c2cc3cn(-c4ccc([C@@H]5CCC[C@@H](CCSC(=N)N)N5)cc4)c(=O)nc3[nH]2)c1F [Compound 104],≤ 16,≤ 16
C[C@H](CO)CN1[C@H](CCSC(=N)N)CCC[C@H]1c1ccc(-n2cc3cc(-c4cc(CCC[C@H](C)N)cc(Cl)c4F)[nH]c3nc2=O)cc1 [Compound 105],≤ 16,≤ 16
C[C@H](N)CCCc1cc(Cl)c(F)c(-c2cc3cn(-c4ccc([C@H]5C[C@H](CCSC(=N)N)CN5)cc4)c(=O)nc3[nH]2)c1 [Compound 114],≤ 16,≤ 16
C[C@H](N)CCCc1cc(Cl)c(F)c(-c2cc3cn(-c4ccc([C@H]5C[C@H](CCSC(=N)N)C(=O)N5C)cc4)c(=O)nc3[nH]2)c1 [Compound 115],> 16,≤ 16
CC(C)SC(=N)NCC[C@@H]1CCC[C@@H](c2ccc(-n3cc4cc(-c5cc(CCC[C@H](C)N)cc(Cl)c5F)[nH]c4nc3=O)cc2)N1 [Compound 119],≤ 16,≤ 16
CSC(=N)NCC[C@@H]1CCC[C@@H](c2ccc(-n3cc4cc(-c5cc(CCC[C@H](C)N)cc(Cl)c5F)[nH]c4nc3=O)cc2F)N1 [Compound 121],≤ 16,≤ 16

# Second part, the compound after the results:
MIC [1] [µg/mL],MIC [2] [µg/mL],Structure (SMILES)
> 16,≤ 16,COCCN1[C@H](CCSC(=N)N)CCC[C@H]1c1ccc(-n2cc3cc(-c4cc(CCC[C@H](C)N)cc(Cl)c4F)[nH]c3nc2=O)cc1 [Compound 97]
≤ 16,≤ 16,C[C@H](N)CCCc1cc(-c2cc3cn(-c4ccc([C@@H]5CCC[C@@H](CCSC(=N)N)N5)cc4)c(=O)nc3[nH]2)cc(C2CC2)c1 [Compound 99]
≤ 16,≤ 16,C[C@@H](CO)CN1[C@H](CCSC(=N)N)CCC[C@H]1c1ccc(-n2cc3cc(-c4cc(CCC[C@H](C)N)cc(Cl)c4F)[nH]c3nc2=O)cc1 [Compound 101]
≤ 16,≤ 16,C[C@H](N)CCCc1cc(Cl)c(F)c(-c2cc3cn(-c4ccc([C@@H]5CCC[C@@H](CCSC(=N)N)N5CCC5CCOCC5)cc4)c(=O)nc3[nH]2)c1 [Compound 102]
≤ 16,≤ 16,C[C@H](N)CCCc1cc(Cl)c(F)c(-c2cc3cn(-c4ccc([C@@H]5CCC[C@@H](CCSC(=N)N)N5CCC5CC5)cc4)c(=O)nc3[nH]2)c1 [Compound 103]
≤ 16,≤ 16,C[C@H](N)CCCc1cc(Cl)c(F)c(-c2cc3cn(-c4ccc([C@@H]5CCC(O)[C@@H](CCSC(=N)N)N5C)cc4)c(=O)nc3[nH]2)c1 (some centres unmarked) [Compound 106]
≤ 16,≤ 16,C[C@H](N)CCCc1cc(Cl)c(F)c(-c2cc3cn(-c4ccc([C@H]5C[C@H](CCSC(=N)N)CCN5C)cc4)c(=O)nc3[nH]2)c1 [Compound 111]
≤ 16,≤ 16,C[C@H](N)CCCc1cc(Cl)c(F)c(-c2cc3cn(-c4ccc([C@@H]5C[C@@H](CCSC(=N)N)CN5)cc4)c(=O)nc3[nH]2)c1 [Compound 116]
≤ 16,≤ 16,C[C@H](N)CCCc1cc(Cl)c(F)c(-c2cc3cn(-c4ccc([C@H]5C[C@H](CCSC(=N)N)CN5CCCF)cc4)c(=O)nc3[nH]2)c1 [Compound 117]
≤ 16,≤ 16,CCSC(=N)NCC[C@@H]1CCC[C@@H](c2ccc(-n3cc4cc(-c5cc(CCC[C@H](C)N)cc(Cl)c5F)[nH]c4nc3=O)cc2)N1 [Compound 118]
≤ 16,≤ 16,CSC(=N)NCC[C@@H]1CCC[C@@H](c2ccc(-n3cc4cc(-c5cc(CCC[C@H](C)N)cc(Cl)c5F)[nH]c4nc3=O)cc2)N1 [Compound 120]
